These are literature values, as cited in patent publication US20130005740A1, “PROCESS FOR PREPARATION OF OVER-THE-COUNTER GELATIN OR PECTIN-BASED DRUG DELIVERY” (7267207 CANADA LIMITED CORPORATION, priority 2009, published 2013).

For the data set the following is noted: unlike aspirin.

For `CC(C)Cc1ccc(C(C)C(=O)O)cc1` (stereo not shown) [ibuprofen], the stability in solution result was “stable in solution”.
